Our source for the Ki values is US7550469B2, “Heterocyclic amide derivatives and their use as dopamine D3 receptor ligands” (Aventis Pharmaceuticals Inc., priority 2001, dated 2009).

For one experiment, the target named is T1, cloned human dopamine D3 receptors (Homo sapiens, UniProt P35462).
T1 construct: expressed in transfected cells; membrane homogenate
T1 sequence (P35462 whole entry): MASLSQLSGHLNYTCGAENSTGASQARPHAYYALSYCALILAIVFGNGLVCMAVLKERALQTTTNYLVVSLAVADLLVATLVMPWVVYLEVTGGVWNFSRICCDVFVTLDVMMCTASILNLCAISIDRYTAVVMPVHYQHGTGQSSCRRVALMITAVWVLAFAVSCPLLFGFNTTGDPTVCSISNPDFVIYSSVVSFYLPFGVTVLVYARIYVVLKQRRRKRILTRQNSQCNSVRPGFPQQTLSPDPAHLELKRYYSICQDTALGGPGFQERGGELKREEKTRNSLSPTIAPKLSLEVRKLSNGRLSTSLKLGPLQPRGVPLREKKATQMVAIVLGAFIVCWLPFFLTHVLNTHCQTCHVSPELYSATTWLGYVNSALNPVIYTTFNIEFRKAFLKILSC
The experiment is described as follows: [N-Methyl-3H]Spiroperidol binding to cloned human dopamine D3 receptors (Protocol 1). The following applies: read-out: D3K1. In a few lines: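 Radioligand displacement with [N-methyl-3H]spiroperidol used a physiological-salt Tris buffer (0.05 M, pH 7.7; NaCl 120 mM, KCl 5 mM, CaCl2 2 mM, MgCl2 1 mM) and membranes of a high-expressing stable CHO clone carrying human D3. Total ligand concentration came from measured added CPM; 0.1% ascorbic acid was optional for oxidizable compounds.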
Take `O=C(NCCCCN1CCN(c2c(Cl)sc3cc(C(F)(F)F)ccc23)CC1)c1ccc(F)cc1F` [compound 815561]: the Ki is 41 nM.
On the same count and under the same terms, the result for `CC1(C)C(CNC(=O)Cc2ccccc2)C1CN1CCN(c2csc3cc(C(F)(F)F)ccc23)CC1` (stereo not drawn) [compound 826281] reads 73.2 nM.
The same measure, in the same setting: under `O=C(NCCCCN1CCN(c2c(Cl)sc3cc(C(F)(F)F)ccc23)CC1)c1cccs1` [compound 815566] stands 32 nM.
The same measure, in the same setting: the result for `COc1cc(OC)cc(C(=O)NCCCCN2CCN(c3csc4cc(C(F)(F)F)ccc34)CC2)c1` [compound 815543] reads 32 nM; that for `O=C(COc1ccccc1)NC/C=C\CN1CCN(c2csc3cc(C(F)(F)F)ccc23)CC1` [compound 826347], 67 nM.
Regarding `O=C(NC/C=C/CN1CCN(c2csc3cc(C(F)(F)F)ccc23)CC1)c1cc2ccccc2s1` [compound 827728], the Ki was 16 nM.
The same measure, in the same setting: under `Cc1ccc(C(=O)N[C@@H](CO)CCCN2CCN(c3csc4cc(C(F)(F)F)ccc34)CC2)cc1` [compound 815671] stands 309 nM.

Staying with this experiment, now noted: the 13th table, unit inferred; read-out: D3Ki.
On to `O=C(NCCCCN1CCCN(c2csc3cc(F)ccc23)CC1)c1ccc2[nH]ccc2c1` [S977824], for which the Ki was 1.14 nM.
Still for that read-out and setting: the result for `Cc1nn(-c2ccccc2)nc1C(=O)NCCCCN1CCCN(c2csc3cc(F)ccc23)CC1` [S981833] reads 9 nM; that for `Cc1ccc(Sc2ncccc2C(=O)NCCCCN2CCCN(c3csc4cc(F)ccc34)CC2)cc1` [S981835], 1.2 nM.
On the same count and under the same terms, the result for `O=C(NCCCCN1CCCN(c2csc3cc(F)ccc23)CC1)c1cc(Cl)cc(Cl)c1` [S981848] reads 8.3 nM; that for `CCOc1ccc(C(=O)NCCCCN2CCC(c3noc4ccsc34)CC2)cc1` [compound 815152], 158 nM.
Same read-out and setting: the result for `CC1(c2ccc(C(=O)NCCCCN3CCCN(c4csc5cc(F)ccc45)CC3)cc2)NC(=O)NC1=O` (stereo not drawn) [S982513] reads 0.132 nM.
For the compound `O=C(NCCCCN1CCCN(c2csc3cc(F)ccc23)CC1)c1ccc(C(F)(F)F)cc1` [S9818147], the Ki came to 30.8 nM.
With `O=C(NCCCCN1CCCN(c2csc3cc(F)ccc23)CC1)c1cc2ccccc2o1` [S977819], the Ki was 3.21 nM.

Staying with this experiment, now noted: the 14th table; read-out: D3 Ki.
Turning to `O=C(NCCCCCN1CCN(c2csc3cc(F)ccc23)CC1)c1cc2ccccc2o1` [compound 826793], the Ki came out at 3.7 nM.
Same read-out and setting: the result for `Cc1ccc(C(=O)N[C@@H](CO)CCCN2CCN(c3csc4cc(C(F)(F)F)ccc34)CC2)cc1` [compound 815671] reads 309 nM.

Still in this experiment, the particulars now being: the 18th table; read-out: D3 Ki.
As for `O=C(NCc1sccc1CN1CCN(c2csc3cc(F)ccc23)CC1)c1ccc2[nH]ccc2c1` [compound 826327], the Ki was found to be 20 nM.

The experiment is the same for the next values; noted with them: the 19th table; read-out: D3 Ki.
Turning to `O=C(Nc1cccc(CN2CCN(c3csc4cc(F)ccc34)CC2)c1)c1ccsc1` [compound 825654], the Ki was determined as 245 nM.
Same read-out and setting: under `COc1ccc(C(=O)NCc2ccccc2CN2CCN(c3csc4cc(F)ccc34)CC2)cc1OC` [compound 822188] stands 140 nM.

Still in this experiment, the particulars now being: the 21st table; read-out: D3 Ki.
As to `C[C@@H]1CN(c2csc3cc(C(F)(F)F)ccc23)C[C@H](C)N1CCCCNC(=O)c1ccc2[nH]ccc2c1` [compound 826954], the Ki was 39.4 nM.
The same measure, in the same setting: the result for `COc1cc(OC)cc(C(=O)NCCCCN2[C@H](C)CN(c3csc4cc(F)ccc34)C[C@@H]2C)c1` [compound 827048] reads 317 nM.
Regarding `C[C@@H]1CN(c2csc3cc(F)ccc23)C[C@H](C)N1CCCCNC(=O)c1n[nH]c2ccccc12` [compound 826966], the Ki was 77.1 nM.

Staying with this experiment, now noted: the 22nd table; read-out: D3 Ki.
Regarding `O=C(NCCCCN1CCN(c2nn(C(=O)c3cc4ccccc4s3)c3ccsc23)CC1)c1cc2ccccc2s1` [compound 825164], the Ki was 10.4 nM.

The experiment is the same for the next values; noted with them: the 23rd table; read-out: D3 Ki.
As to `C[C@H]1CC[C@H](NC[C@@H]2C[C@H]2CN2CCC(c3noc4c(C(F)(F)F)cccc34)CC2)CC1` [compound 832275], the Ki stood at 33.6 nM.
On the same count and under the same terms, the result for `CC1CCCCN1CCCNC[C@@H]1C[C@H]1CN1CCN(c2csc3cc(C(F)(F)F)ccc23)CC1` (mixture of isomers) [compound 832277] reads 29.4 nM.

Still in this experiment, the particulars now being: the 26th table; read-out: D3 Ki.
As for `OC(CCN1CCC(c2noc3ccsc23)CC1)CN1CCOCC1` (stereo not drawn) [compound 831940], the Ki is 356 nM.
